The subject of one data set is Blattella germanica. The data set is described as follows: Mortality test on beetles, treated glass plates with chloropyriphos or propoxur. It is filed as in vivo. The settings on record: 24 hours exposure; for Mortalità 1gg: 1 day from application; for Mortalità 3gg: 3 days from application. How it is done:
Solutions of products of examples 1 and 3 in acetone and, for comparison, of piperonyl butoxide, with the organic phosphorus compound chloropyriphos and with carbamate compound propoxur, were applied from a distance of 12 cm on glass plates (model Ostra, 15×15 cm=225 square cm) by means of a suitable glass sprayer so as to obtain an applied amount of organic phosphorous compound equal to 33 mg/square m and of carbamate equal to 500 mg/mq. The products of examples 1 e 3 and the comparison compound PBO were in a weight ratio of 5:1 w/w with respect to the organic phosphorous compound and to the carbamate.
In the same way acetone solutions of organic phosphorous compound and of carbamate compound were prepared so as to obtain an applied amount of organic phosphorous compound equal to 33 mg/square m and of carbamate compound equal to 500 mg/mq. After the application the plates were transferred to a closed test room under controlled temperature and humidity (24-25° C., RH 50-60%). Glass rings (h 5.5 cm×diameter 9.5 cm), having internal surface treated with talc and each one containing 5 beetles—Blattella germanica—were placed in the centre of the plates. They were evaluated each one after 1 day and three days from the application. For each day, the insects were maintained on the surface for 24 hours.

For data set [1], the system named is adult, female insects of the Musca domestica species. The data set is described as follows: whole plant or invertebrate. It is filed as in vivo. The settings on record: for Mortality: compound 1.25% w/v + tetramethrin 0.25% w/v in acetone; for synergist activity in respect of the tetramethrin: summary of Table 1, comparison with PBO. As to the method: After having mixed the products of Examples 1-4 with tetramethrin in acetone respectively at a concentration of 1.25% for the products of examples 1-4 and of 0.25% for the tetramethrin, 0.5 μl of acetone solution was applied to adult, female insects of the Musca domestica species, on the rear part of the pectoral region. The insect was then transferred to a closed plastic container approximately 12 cm in diameter and 6 cm in height and left at 25° C. with supply of 5% sugar solution. After 24 hours the alive and dead flies were examined to determine the percentage mortality. The total number of flies per container was equal to 20 and the test was repeated three times. For comparison acetone solutions at the same concentrations as previously indicated for the compounds of examples 1-4 and for tetramethrin alone were prepared.
For comparison an acetone solution at an equal concentration of piperonyl butoxide and tetramethrin and an acetone solution at the same concentration of piperonyl butoxide alone were also prepared.

The mark [2] stands for this setting: Musca domestica, compound alone 1.25% w/v in acetone, tetramethrin 0, 0.5 μl topical, after 24 hours, read-out: Mortality.
The mark [3] stands for this setting: product 165 mg/sm + chloropyriphos 33 mg/sm.
Where [4] appears, read: product 2500 mg/sm + propoxur 500 mg/sm.

Like-named read-outs stand apart in the source and are kept apart here.

`CCOP(=S)(OCC)Oc1nc(Cl)c(Cl)cc1Cl` [Chloropyriphos, chloropyriphos, reference compound]: in the data set on Blattella germanica (chloropyriphos alone 33 mg/sm), the “Mortalità 1gg” value was found to be 32% and the “Mortalità 3gg” value came out at 48%.
One may read the mortality as the percentage killed. Consider `CCCCCCCCc1cc2c(cc1COCCOCCOCCCC)OCO2` [Ex. 1, 5-[2-(2-butoxyethoxy)-ethoxymethyl]-6-n-octyl-1,3-benzodioxole], for which the mortality at 1.25 % strength in data set [1] (setting [2]) stood at 0%. Further, the Mortality in data set [1] (0.5 μl topical, after 24 hours) was found to be 100%. Further, in data set [1], the “synergist activity in respect of the tetramethrin” value was “most active as synergists”. In addition, the results for the “Mortalità 1gg” value in the data set with Blattella germanica (setting [3]) and with Blattella germanica (setting [4]) were 62% and 48%, respectively. For the same molecule, the “Mortalità 3gg” value amounted to 85% with Blattella germanica (setting [3]) and 60% in the data set on Blattella germanica (setting [4]).
As for `CCCCOCCOCCOCc1cc2c(cc1CCCC)OCO2` [Ex. 2, 5-[2-(2-butoxyethoxy)-ethoxymethyl]-6-n-butyl-1,3-benzodioxole], the mortality at 1.25 % strength in data set [1] (setting [2]) stood at 0%. For the same molecule, the Mortality in data set [1] (0.5 μl topical, after 24 hours) is on record as 80%.
For the molecule `CCCCCCc1cc2c(cc1COCCOCCOCCCC)OCO2` [Ex. 3, 5-[2-(2-Butoxy-ethoxy)-ethoxymethyl]-6-n-hexyl-1,3-benzodioxole], the mortality at 1.25 % strength in data set [1] (setting [2]) stood at 0%. Also, the Mortality in data set [1] (0.5 μl topical, after 24 hours) is 100%. The “synergist activity in respect of the tetramethrin” value in data set [1] is on record as “most active as synergists”. Moreover, in the data set with Blattella germanica (setting [3]), the “Mortalità 1gg” value is on record as 60% and the “Mortalità 3gg” value turned out to be 80%. Moreover, in the data set with Blattella germanica (setting [4]), the “Mortalità 1gg” value was 44% and the “Mortalità 3gg” value worked out at 56%.
For the molecule `CCCCCCCCCCc1cc2c(cc1COCCOCCOCCCC)OCO2` [Ex. 4, 5-[2-(2-Butoxyethoxy)-ethoxymethyl]-6-n-decyl-1,3-benzodioxole], in data set [1] (setting [2]), the mortality at 1.25 % strength came to 0%. In data set [1] (0.5 μl topical, after 24 hours), the Mortality was 80%.
Consider `CCCCOCCOCCOCc1cc2c(cc1CCC)OCO2` [PBO, 5-[2-(2-butoxyethoxy)-ethoxymethyl]6-propyl-1,3-benzodioxole, reference compound], for which the mortality at 1.25 % strength in data set [1] (Musca domestica, topical, 24 h) amounted to 0%. Besides, in the data set on Blattella germanica (setting [3]), the “Mortalità 1gg” value stood at 45% and the “Mortalità 3gg” value came to 65%. In the data set with Blattella germanica (setting [4]), the “Mortalità 1gg” value is given as 35% and the “Mortalità 3gg” value turned out to be 42%.
As for `CNC(=O)Oc1ccccc1OC(C)C` [Propoxur, propoxur, reference compound], in the data set with Blattella germanica (propoxur alone 500 mg/sm), the “Mortalità 1gg” value is recorded as 20% and the “Mortalità 3gg” value was determined as 31%.
In the case of `CC(C)=CC1C(C(=O)OCN2C(=O)C3=C(CCCC3)C2=O)C1(C)C` (stereo not shown) [tetramethrin, reference compound], in data set [1] (Musca domestica, topical, 24 h), the mortality at 0.25 % strength was found to be 20%.
